Reference: ChEMBL document CHEMBL3991601, “The target landscape of clinical kinase drugs” (Science, 2017)
Calls of active or inactive are those of the source. Rule as the data show it, for most assays here: actives have a measured Kd and inactives only a lower limit.

Tests used:
[1] = target: Rho-associated protein kinase 1 (Homo sapiens, UniProt Q13464)
[2] = target: Mitogen-activated protein kinase 1 (Homo sapiens, UniProt P28482)
Ephrin type-B receptor 6 = target: T1, Ephrin type-B receptor 6 (Homo sapiens, UniProt O15197)
T1 sequence (O15197 whole entry): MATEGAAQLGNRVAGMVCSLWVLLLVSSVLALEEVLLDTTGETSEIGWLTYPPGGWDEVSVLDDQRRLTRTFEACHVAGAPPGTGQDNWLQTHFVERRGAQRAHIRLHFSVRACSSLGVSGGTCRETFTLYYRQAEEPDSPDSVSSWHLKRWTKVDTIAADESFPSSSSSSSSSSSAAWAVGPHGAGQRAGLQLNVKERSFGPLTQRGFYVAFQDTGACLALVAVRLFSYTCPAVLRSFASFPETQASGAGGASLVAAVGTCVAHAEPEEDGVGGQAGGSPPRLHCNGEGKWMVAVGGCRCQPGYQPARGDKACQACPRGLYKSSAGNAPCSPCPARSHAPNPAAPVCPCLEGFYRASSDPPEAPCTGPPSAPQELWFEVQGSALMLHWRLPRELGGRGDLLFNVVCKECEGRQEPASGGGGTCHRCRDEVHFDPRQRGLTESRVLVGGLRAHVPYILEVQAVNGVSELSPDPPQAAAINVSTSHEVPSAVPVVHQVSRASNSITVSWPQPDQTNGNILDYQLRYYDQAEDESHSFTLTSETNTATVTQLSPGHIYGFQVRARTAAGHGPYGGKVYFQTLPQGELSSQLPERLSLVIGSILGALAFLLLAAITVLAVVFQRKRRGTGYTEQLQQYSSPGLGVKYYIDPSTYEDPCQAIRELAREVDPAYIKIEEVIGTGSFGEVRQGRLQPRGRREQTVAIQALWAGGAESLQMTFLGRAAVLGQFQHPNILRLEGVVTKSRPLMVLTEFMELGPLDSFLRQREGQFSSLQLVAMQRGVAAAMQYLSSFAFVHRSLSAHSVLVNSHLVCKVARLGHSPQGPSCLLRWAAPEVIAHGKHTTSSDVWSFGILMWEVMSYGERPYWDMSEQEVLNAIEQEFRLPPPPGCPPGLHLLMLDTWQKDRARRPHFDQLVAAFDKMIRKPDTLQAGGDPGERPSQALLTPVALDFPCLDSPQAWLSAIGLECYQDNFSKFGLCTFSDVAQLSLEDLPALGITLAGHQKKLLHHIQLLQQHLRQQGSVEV

[3] = target: T2, Mitogen-activated protein kinase kinase kinase kinase 3 (Homo sapiens, UniProt Q8IVH8)
T2 sequence (Q8IVH8 whole entry): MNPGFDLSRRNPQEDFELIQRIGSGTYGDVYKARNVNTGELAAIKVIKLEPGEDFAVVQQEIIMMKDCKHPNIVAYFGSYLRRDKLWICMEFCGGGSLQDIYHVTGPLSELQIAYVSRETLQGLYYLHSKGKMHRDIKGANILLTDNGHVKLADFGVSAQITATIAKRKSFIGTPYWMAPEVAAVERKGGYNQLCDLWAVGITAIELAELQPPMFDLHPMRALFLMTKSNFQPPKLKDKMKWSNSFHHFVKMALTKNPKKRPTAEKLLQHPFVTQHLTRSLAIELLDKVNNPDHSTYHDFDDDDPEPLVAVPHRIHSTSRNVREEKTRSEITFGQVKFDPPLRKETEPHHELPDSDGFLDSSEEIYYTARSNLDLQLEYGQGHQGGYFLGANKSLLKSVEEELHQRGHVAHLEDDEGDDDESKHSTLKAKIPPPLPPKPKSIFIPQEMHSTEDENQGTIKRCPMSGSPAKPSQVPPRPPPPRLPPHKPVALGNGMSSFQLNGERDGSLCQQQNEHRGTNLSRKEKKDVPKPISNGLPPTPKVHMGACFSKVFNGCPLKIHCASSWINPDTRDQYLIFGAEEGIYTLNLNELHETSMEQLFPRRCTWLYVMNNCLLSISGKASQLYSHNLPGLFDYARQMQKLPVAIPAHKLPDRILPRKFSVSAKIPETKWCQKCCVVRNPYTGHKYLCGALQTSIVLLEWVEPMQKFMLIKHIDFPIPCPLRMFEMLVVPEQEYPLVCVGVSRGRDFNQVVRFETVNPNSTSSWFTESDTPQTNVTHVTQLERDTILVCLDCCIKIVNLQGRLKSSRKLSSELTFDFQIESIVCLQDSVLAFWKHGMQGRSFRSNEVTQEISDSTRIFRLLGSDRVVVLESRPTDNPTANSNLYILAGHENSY

[4] = target: cAMP-dependent protein kinase catalytic subunit gamma (Homo sapiens, UniProt P22612)
Ephrin type-A receptor 2 = Ephrin type-A receptor 2 (Homo sapiens, UniProt P29317)
[5] = target: T3, Serine/threonine-protein kinase ULK3 (Homo sapiens, UniProt Q6PHR2)
T3 sequence (Q6PHR2 whole entry): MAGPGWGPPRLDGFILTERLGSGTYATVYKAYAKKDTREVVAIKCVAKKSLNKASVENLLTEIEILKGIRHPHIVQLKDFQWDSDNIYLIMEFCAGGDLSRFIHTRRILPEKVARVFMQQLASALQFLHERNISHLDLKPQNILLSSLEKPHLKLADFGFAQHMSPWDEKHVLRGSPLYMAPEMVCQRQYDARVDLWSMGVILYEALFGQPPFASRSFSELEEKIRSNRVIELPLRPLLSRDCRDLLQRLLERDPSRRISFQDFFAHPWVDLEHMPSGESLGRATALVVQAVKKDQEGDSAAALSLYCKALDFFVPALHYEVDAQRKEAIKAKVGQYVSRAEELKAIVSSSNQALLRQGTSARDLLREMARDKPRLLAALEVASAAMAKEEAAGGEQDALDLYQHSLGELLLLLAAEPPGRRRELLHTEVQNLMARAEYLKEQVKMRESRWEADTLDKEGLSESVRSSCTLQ

Activin receptor type-2B = Activin receptor type-2B (Homo sapiens, UniProt Q13705)
Actin-related protein 2 = Actin-related protein 2 (Homo sapiens, UniProt P61160)
Also: in the data inactive means no Kd found up to 30 µM.

Sequence of Rho-associated protein kinase 1 (Q13464 whole entry): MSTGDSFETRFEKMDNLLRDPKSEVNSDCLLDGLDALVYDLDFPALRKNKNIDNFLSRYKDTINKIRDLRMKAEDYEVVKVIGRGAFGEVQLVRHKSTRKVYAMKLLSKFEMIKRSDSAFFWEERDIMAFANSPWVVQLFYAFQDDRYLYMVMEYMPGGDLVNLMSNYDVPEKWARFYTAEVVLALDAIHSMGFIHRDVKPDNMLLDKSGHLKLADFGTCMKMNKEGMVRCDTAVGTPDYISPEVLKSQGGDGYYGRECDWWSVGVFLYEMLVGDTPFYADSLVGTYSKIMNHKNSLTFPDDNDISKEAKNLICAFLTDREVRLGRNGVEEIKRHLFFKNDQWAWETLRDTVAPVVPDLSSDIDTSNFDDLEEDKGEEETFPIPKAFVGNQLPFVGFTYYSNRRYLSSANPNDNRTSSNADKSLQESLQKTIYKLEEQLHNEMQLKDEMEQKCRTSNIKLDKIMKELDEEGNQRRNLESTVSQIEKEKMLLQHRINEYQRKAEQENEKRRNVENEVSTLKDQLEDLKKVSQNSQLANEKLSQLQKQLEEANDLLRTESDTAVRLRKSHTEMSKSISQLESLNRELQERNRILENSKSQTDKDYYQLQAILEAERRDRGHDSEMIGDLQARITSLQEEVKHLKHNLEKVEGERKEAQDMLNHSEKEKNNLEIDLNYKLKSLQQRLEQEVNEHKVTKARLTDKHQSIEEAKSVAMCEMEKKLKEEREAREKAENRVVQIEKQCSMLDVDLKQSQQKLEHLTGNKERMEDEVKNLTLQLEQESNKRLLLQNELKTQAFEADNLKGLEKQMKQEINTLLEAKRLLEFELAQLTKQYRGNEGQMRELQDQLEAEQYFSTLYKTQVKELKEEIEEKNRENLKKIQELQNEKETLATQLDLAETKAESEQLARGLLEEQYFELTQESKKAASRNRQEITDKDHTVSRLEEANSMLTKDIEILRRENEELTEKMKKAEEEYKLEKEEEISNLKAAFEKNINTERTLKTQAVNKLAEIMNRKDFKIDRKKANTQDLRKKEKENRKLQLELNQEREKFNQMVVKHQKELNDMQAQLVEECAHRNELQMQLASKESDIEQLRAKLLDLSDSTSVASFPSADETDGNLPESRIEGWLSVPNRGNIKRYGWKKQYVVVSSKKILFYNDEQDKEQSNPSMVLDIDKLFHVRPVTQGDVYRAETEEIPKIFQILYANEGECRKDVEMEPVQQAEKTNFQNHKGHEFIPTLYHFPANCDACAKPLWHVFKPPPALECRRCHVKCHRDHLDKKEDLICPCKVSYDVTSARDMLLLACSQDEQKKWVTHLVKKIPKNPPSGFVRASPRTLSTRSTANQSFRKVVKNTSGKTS
Sequence of Ephrin type-A receptor 2 (P29317 whole entry): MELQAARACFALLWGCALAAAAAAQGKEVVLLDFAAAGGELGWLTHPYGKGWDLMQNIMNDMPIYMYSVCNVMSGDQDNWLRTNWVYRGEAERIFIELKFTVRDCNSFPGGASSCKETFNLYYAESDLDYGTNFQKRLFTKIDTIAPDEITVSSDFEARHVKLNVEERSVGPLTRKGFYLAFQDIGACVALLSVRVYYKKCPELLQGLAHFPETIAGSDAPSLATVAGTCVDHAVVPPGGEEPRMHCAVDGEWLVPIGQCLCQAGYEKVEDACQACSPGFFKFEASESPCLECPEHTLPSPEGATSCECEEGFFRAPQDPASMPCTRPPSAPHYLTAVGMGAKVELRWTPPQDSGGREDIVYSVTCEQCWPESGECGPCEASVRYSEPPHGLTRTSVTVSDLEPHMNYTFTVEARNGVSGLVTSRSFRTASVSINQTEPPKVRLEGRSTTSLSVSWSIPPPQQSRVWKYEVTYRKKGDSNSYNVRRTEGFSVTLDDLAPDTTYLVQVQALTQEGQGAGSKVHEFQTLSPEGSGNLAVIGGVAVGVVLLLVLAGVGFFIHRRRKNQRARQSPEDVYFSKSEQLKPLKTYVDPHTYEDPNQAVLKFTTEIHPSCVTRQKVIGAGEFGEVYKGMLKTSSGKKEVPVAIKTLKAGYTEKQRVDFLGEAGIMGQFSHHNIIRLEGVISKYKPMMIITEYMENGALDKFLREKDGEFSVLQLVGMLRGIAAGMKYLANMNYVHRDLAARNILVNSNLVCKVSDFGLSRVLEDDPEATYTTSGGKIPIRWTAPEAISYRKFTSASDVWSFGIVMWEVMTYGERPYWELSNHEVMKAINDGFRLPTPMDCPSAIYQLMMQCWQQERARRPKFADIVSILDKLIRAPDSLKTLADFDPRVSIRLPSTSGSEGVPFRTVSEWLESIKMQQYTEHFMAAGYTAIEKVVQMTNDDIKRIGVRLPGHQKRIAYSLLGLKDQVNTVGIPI
Sequence of Activin receptor type-2B (Q13705 whole entry): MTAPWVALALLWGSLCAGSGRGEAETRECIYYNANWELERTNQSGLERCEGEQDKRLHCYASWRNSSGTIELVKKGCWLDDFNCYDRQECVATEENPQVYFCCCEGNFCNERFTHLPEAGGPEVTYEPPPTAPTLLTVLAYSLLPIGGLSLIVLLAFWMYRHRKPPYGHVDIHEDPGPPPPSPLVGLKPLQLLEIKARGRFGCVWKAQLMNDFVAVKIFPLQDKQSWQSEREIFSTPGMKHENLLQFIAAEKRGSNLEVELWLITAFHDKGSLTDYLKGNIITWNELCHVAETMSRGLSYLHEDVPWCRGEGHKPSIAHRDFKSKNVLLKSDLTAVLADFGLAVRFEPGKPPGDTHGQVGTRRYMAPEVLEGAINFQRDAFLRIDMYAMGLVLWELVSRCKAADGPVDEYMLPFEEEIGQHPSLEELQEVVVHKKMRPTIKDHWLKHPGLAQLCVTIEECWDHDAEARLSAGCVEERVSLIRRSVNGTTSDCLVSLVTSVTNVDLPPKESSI
Sequence of cAMP-dependent protein kinase catalytic subunit gamma (P22612 whole entry): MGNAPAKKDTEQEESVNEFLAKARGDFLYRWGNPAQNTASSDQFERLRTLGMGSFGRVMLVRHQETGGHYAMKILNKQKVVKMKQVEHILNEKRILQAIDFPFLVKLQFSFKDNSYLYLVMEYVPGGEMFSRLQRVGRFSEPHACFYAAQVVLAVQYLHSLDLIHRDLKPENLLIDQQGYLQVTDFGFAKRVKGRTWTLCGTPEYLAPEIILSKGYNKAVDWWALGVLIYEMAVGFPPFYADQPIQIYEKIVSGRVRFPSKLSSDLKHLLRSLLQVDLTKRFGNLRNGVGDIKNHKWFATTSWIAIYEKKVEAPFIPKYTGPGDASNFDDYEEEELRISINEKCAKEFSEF
Sequence of Mitogen-activated protein kinase 1 (P28482 whole entry): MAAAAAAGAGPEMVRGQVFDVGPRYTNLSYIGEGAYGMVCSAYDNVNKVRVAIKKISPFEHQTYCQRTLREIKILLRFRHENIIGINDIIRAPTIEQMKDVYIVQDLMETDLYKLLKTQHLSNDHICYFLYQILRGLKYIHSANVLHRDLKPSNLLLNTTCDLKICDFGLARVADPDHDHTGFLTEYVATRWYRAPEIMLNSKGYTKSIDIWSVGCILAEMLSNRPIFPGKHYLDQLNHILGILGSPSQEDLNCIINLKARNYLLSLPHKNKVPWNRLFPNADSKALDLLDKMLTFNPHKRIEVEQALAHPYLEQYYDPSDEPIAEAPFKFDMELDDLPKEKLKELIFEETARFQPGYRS

Structure (SMILES) | Kd [1] | Kd [2] | Kd (Ephrin type-B receptor 6) | Kd [3] | Kd [4] | Kd (Ephrin type-A receptor 2) | Kd [5] | Kd (Activin receptor type-2B) | Kd (Actin-related protein 2)
CN1CCC(CNc2ccc3ncc(-c4cccc(OC(F)(F)F)c4)n3n2)CC1 [SGI-1776] | > 30 µM (inactive) | > 30 µM (inactive) | > 30 µM (inactive) | > 30 µM (inactive) | > 30 µM (inactive) | > 30 µM (inactive) | > 30 µM (inactive) | > 30 µM (inactive) | > 30 µM (inactive)
C[C@@H]1CN(Cc2ccc(F)cc2)[C@@H](C)CN1C(=O)c1cc2c(C(=O)C(=O)N(C)C)cn(C)c2cc1Cl [TALMAPIMOD] | > 30 µM (inactive) | > 30 µM (inactive) | > 30 µM (inactive) | > 30 µM (inactive) | > 30 µM (inactive) | > 30 µM (inactive) | > 30 µM (inactive) | > 30 µM (inactive) | 0.004 µM
CN1CCC(COc2cnc(-c3cccc(Cn4nc(-c5cccc(C#N)c5)ccc4=O)c3)nc2)CC1 [TEPOTINIB] | > 30 µM (inactive) | > 30 µM (inactive) | > 30 µM (inactive) | > 30 µM (inactive) | > 30 µM (inactive) | > 30 µM (inactive) | > 30 µM (inactive) | > 30 µM (inactive) | > 30 µM (inactive)
O=c1sn(-c2cccc3ccccc23)c(=O)n1Cc1ccccc1 [TIDEGLUSIB] | > 30 µM (inactive) | > 30 µM (inactive) | > 30 µM (inactive) | > 30 µM (inactive) | > 30 µM (inactive) | > 30 µM (inactive) | > 30 µM (inactive) | > 30 µM (inactive) | > 30 µM (inactive)
CCn1c(=O)c(-c2cc[nH]n2)cc2c(C)nc(N)nc21 [VOXTALISIB] | > 30 µM (inactive) | > 30 µM (inactive) | > 30 µM (inactive) | > 30 µM (inactive) | > 30 µM (inactive) | > 30 µM (inactive) | > 30 µM (inactive) | > 30 µM (inactive) | > 30 µM (inactive)

Further lines, results first:

Kd [1] | Kd [2] | Kd (Ephrin type-B receptor 6) | Kd [3] | Kd [4] | Kd (Ephrin type-A receptor 2) | Kd [5] | Kd (Activin receptor type-2B) | Kd (Actin-related protein 2) | Structure (SMILES)
> 30 µM (inactive) | > 30 µM (inactive) | > 30 µM (inactive) | > 30 µM (inactive) | > 30 µM (inactive) | 0.147 µM (active) | > 30 µM (inactive) | > 30 µM (inactive) | > 30 µM (inactive) | COc1cc2nccc(Oc3ccc(NC(=O)Nc4cc(C)on4)c(Cl)c3)c2cc1OC [TIVOZANIB]
> 30 µM (inactive) | > 30 µM (inactive) | > 30 µM (inactive) | > 30 µM (inactive) | > 30 µM (inactive) | > 30 µM (inactive) | > 30 µM (inactive) | > 30 µM (inactive) | > 30 µM (inactive) | CC(=O)Nc1cccc(-n2c(=O)n(C3CC3)c(=O)c3c(Nc4ccc(I)cc4F)n(C)c(=O)c(C)c32)c1 [TRAMETINIB]
